For one data set, the target named is CDK2/CyclinA (Homo sapiens, UniProt P24941). Kind of data set: CDK2/CycA kinase assay (Nanosyn, Caliper microfluidic). To be noted: 12-point dose-response, ATP 50 μM (Km), 3 hr; read-out: Inhibition of CDK kinases: Cdk2/CycA. Type of data set: biochemical. The procedure: (§1) Selected compounds disclosed herein were tested in CDK4/cyclinD1, CDK6/CycD3, CDK2/CycA, CDK2/cyclinE, CDK5/p25, CDK5/p35, CDK7/CycH/MAT1, and CDK9/CycT kinase assays by Nanosyn (Santa Clara, Calif.) to determine their inhibitory effect on these CDKs. The assays were performed using microfluidic kinase detection technology (Caliper Assay Platform). The compounds were tested in 12-point dose-response format in singlicate at Km for ATP. Phosphoacceptor substrate peptide concentration used was 1.25 μM for all assays (except […] was used for the CKD7/CycH/MAT1 assay and Staurosporine was used as the reference compound for all assays. Specifics of each assay are as described below:
CDK2/CyclinA: Enzyme concentration: 0.2 nM; ATP concentration: 50 μM; Incubation time: 3 hr.

The next data set has as its target CDK2/CyclinE (Homo sapiens, UniProt P24941). Kind of data set: CDK2/cyclinE kinase assay (Nanosyn, Caliper microfluidic). Type of data set: biochemical. The note with it: read-out: Inhibition of CDK kinases: Cdk2/CycE. As to the method: as §1
CDK2/CyclinE: Enzyme concentration: 0.2 nM; ATP concentration: 100 μM; Incubation time: 3 hr.

Another data set concerns the target CDK4/CyclinD1 (Homo sapiens, UniProt P11802). Nature of the data set: CDK4/cyclinD1 kinase assay (Nanosyn, Caliper microfluidic). In kind it is biochemical. The note with it: 12-point dose-response, ATP 200 μM (Km), 3 hr; read-out: Inhibition of CDK kinases: Cdk4/CycD1. As to the method: as §1
CDK4/CyclinD1: Enzyme concentration: 1 nM; ATP concentration: 200 μM; Incubation time: 3 hr.

The target of another data set is CDK5/p25 (Homo sapiens, UniProt Q00535). Kind of data set: CDK5/p25 kinase assay (Nanosyn, Caliper microfluidic). Type of data set: biochemical. The note with it: 12-point dose-response, ATP 20 μM (Km), 3 hr; read-out: Inhibition of CDK kinases: Cdk5/p25. As to the method:
as §1
CDK5/p25: Enzyme concentration: 0.1 nM; ATP concentration: 20 μM; Incubation time: 3 hr.

Another data set has as its target CDK5/p35 (Homo sapiens, UniProt Q00535). Nature of the data set: CDK5/p35 kinase assay (Nanosyn, Caliper microfluidic). Type of data set: biochemical. The note with it: 12-point dose-response, ATP 20 μM (Km), 3 hr; read-out: Inhibition of CDK kinases: Cdk5/p35. As to the method:
as §1
CDK5/p35: Enzyme concentration: 0.07 nM; ATP concentration: 20 μM; Incubation time: 3 hr.

The next data set concerns the target CDK6/CyclinD3 (Homo sapiens, UniProt Q00534). Nature of the data set: CDK6/CycD3 kinase assay (Nanosyn, Caliper microfluidic). In kind it is biochemical. To be noted: 12-point dose-response, ATP 300 μM (Km), 3 hr; read-out: Inhibition of CDK kinases: Cdk6/CycD3. The procedure: as §1
CDK6/CyclinD3: Enzyme concentration: 10 nM; ATP concentration: 300 μM; Incubation time: 3 hr.

The next data set deals with CDK7/CycH/MAT1 (Homo sapiens, UniProt P50613). Kind of data set: CDK7/CycH/MAT1 kinase assay (Nanosyn, Caliper microfluidic). In kind it is biochemical. To be noted: 12-point dose-response, ATP 50 μM (Km), 3 hr; read-out: Inhibition of CDK kinases: Cdk7/CycH/MAT1. The procedure: as §1
CDK7/CycH/MAT1, sequence (P50613 whole entry, species assumed): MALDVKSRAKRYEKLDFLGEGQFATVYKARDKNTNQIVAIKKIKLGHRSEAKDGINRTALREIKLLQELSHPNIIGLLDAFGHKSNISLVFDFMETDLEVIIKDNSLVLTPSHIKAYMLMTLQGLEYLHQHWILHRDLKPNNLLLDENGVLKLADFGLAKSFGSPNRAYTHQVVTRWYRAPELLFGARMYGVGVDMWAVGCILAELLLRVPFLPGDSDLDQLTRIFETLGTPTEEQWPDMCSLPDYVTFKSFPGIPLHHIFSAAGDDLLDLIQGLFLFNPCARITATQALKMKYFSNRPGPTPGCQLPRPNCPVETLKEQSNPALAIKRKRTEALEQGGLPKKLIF
CDK7/CycH/MAT1, sequence (P51946 whole entry partner, species assumed): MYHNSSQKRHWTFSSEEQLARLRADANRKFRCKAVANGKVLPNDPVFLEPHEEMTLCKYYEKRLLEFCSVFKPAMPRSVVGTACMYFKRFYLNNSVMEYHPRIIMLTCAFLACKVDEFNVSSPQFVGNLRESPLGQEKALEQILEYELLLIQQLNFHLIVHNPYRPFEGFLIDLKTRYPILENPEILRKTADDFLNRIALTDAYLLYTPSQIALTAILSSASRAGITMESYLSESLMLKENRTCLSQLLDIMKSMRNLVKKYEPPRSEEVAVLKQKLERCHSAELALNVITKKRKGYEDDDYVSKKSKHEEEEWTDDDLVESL
CDK7/CycH/MAT1, sequence (P51948 whole entry partner, species assumed): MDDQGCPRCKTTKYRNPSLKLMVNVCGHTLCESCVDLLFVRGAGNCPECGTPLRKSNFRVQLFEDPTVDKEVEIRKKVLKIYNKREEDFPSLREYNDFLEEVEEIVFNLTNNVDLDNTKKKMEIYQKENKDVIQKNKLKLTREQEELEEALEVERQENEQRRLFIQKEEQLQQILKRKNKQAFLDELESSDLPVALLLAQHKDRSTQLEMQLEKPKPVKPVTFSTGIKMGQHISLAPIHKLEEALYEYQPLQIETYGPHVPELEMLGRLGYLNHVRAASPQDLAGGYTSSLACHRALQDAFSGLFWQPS
CDK7/CycH/MAT1: Enzyme concentration: 5 nM; ATP concentration: 50 μM; Incubation time: 3 hr.

The target in the next data set is CDK9/CycT (Homo sapiens, UniProt P50750). Nature of the data set: CDK9/CycT kinase assay (Nanosyn, Caliper microfluidic). The note with it: read-out: Inhibition of CDK kinases: Cdk9/Cyc T. Type of data set: biochemical. As to the method:
as §1
CDK9/CycT: Enzyme concentration: 5 nM; ATP concentration: 10 μM; Incubation time: 17 hr.

The subject of data set [1] is CDK4/6-dependent cell lines. To be noted: cited from earlier work.
The conditions of data set [2]: Grade 3/4 neutropenia and leukopenia, clinical trial; cited from earlier work.

CDK6/CyclinD3, sequence (Q00534 whole entry, species assumed): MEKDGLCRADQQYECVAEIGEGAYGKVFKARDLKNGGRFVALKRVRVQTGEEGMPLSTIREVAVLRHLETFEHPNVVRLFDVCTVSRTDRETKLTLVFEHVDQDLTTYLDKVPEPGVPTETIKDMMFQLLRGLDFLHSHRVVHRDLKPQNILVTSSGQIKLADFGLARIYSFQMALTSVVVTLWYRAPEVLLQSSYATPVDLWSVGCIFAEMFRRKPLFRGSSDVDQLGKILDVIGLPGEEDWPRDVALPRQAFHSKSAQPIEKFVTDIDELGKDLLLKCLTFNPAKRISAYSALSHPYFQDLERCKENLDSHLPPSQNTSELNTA
CDK6/CyclinD3, sequence (P30281 whole entry partner, species assumed): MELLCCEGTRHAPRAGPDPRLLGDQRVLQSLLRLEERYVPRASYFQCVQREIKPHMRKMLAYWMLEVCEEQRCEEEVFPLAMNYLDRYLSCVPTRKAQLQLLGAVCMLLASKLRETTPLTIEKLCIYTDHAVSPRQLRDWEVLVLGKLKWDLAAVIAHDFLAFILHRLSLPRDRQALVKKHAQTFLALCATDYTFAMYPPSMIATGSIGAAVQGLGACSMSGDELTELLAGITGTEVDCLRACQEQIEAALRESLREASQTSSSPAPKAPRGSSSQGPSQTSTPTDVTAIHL
CDK4/CyclinD1, sequence (P11802 whole entry, species assumed): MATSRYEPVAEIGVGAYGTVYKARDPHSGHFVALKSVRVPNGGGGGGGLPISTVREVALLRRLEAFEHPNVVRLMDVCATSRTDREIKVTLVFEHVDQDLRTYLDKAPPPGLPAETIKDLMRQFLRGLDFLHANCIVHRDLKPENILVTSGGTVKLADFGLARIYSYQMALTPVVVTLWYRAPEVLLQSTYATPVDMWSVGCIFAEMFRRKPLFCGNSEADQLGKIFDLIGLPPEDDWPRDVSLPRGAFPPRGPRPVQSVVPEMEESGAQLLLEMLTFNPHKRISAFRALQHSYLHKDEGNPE
CDK4/CyclinD1, sequence (P24385 whole entry partner, species assumed): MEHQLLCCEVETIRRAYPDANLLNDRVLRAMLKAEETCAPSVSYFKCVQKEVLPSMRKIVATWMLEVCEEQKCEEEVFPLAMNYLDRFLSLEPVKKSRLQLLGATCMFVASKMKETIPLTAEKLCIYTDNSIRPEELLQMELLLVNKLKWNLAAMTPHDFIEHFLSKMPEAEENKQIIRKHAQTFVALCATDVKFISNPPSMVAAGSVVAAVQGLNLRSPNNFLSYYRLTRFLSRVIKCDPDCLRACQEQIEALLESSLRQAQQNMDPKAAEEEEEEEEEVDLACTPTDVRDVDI
CDK5/p35, sequence (Q00535 whole entry, species assumed): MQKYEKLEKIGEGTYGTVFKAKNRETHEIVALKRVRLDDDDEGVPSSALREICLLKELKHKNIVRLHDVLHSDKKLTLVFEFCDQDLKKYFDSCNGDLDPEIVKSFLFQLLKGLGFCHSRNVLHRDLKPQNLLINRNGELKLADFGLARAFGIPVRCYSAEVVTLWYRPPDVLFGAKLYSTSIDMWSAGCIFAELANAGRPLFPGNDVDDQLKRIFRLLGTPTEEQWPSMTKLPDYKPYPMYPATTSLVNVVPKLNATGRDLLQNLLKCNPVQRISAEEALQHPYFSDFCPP
CDK5/p35, sequence (Q15078 whole entry partner, species assumed): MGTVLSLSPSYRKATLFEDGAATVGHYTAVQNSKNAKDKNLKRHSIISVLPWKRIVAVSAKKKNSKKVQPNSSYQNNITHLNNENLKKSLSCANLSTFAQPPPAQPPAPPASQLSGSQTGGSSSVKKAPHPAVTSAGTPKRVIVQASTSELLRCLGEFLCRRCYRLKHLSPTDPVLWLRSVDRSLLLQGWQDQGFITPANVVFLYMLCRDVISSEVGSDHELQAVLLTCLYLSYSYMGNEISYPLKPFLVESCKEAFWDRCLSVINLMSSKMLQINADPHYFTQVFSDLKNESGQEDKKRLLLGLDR
CDK5/p25, sequence (Q00535 whole entry, species assumed): as the sequence (Q00535 whole entry, species assumed) above
CDK5/p25, sequence (Q15078 99-307 partner limits assumed, species assumed): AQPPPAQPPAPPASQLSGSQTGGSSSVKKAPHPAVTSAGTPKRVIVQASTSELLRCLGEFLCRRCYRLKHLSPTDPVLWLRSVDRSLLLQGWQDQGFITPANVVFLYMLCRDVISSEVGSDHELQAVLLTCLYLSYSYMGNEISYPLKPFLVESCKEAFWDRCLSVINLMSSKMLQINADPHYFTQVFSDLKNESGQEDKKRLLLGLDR
CDK9/CycT, sequence (P50750 whole entry, species assumed): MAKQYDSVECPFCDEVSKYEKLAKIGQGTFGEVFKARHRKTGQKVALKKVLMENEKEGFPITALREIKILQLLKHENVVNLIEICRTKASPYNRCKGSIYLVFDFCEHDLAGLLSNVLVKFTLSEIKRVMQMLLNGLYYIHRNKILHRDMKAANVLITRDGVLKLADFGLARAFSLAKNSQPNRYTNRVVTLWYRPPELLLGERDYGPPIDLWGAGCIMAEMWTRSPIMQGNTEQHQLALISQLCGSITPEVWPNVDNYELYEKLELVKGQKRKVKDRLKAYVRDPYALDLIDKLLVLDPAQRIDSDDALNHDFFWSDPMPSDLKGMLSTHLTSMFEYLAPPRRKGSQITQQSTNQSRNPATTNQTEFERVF
CDK9/CycT, sequence (O60563 whole entry partner, species assumed): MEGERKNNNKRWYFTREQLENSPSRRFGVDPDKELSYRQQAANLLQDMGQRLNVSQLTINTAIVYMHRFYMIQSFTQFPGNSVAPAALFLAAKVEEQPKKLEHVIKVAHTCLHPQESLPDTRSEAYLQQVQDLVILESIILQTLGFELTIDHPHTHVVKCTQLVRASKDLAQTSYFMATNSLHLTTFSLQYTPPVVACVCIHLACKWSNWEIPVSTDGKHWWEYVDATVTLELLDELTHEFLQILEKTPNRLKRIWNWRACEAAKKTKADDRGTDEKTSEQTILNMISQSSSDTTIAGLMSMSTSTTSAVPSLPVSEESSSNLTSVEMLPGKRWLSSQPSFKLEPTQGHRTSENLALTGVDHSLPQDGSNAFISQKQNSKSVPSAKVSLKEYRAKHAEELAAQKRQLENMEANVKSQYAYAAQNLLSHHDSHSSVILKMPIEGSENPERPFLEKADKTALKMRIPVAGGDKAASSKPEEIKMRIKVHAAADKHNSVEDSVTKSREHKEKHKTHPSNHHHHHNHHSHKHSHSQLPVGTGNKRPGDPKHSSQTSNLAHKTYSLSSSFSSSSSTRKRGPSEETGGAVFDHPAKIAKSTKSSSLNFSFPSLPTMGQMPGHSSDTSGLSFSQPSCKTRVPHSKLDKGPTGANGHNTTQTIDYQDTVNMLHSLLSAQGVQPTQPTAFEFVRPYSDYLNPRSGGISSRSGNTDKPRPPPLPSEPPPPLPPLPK

With `CN1CCN(c2ccc(Nc3ncc4c(n3)N3C(CC4=O)C(=O)NCC34CCCCC4)nc2)CC1` (centres unmarked) [AAAA], the IC50 at CDK2/CyclinA, on CDK2/CyclinE, at CDK4/CyclinD1, on CDK5/p25, on CDK5/p35 and on CDK6/CyclinD3 was above 100 µM each time. Besides, the IC50 at CDK7/CycH/MAT1 and at CDK9/CycT was above 100 µM each time.

`CN1CCN(c2ccc(Nc3ncc4c(n3)N3C(CC4)C(=O)NCC34CCCCC4)nc2)CC1` (centres unmarked) [BBBB]: the IC50 is 10 to 100 µM at CDK2/CyclinA; above 100 µM at CDK2/CyclinE; 10 to 100 µM at CDK4/CyclinD1; above 100 µM on CDK5/p25; above 100 µM at CDK5/p35; 10 to 100 µM on CDK6/CyclinD3. Further, the IC50 at CDK7/CycH/MAT1 and on CDK9/CycT was above 100 µM throughout.

Turning to `CN1CCN(c2ccc(Nc3ncc4c(n3)N3C(CC4=O)C(=O)NCC34CCCC4)nc2)CC1` (centres unmarked) [CCCC], the IC50 on CDK2/CyclinA, on CDK2/CyclinE, on CDK4/CyclinD1, at CDK5/p25, at CDK5/p35 and on CDK6/CyclinD3 was above 100 µM in each case. The IC50 on CDK7/CycH/MAT1 and at CDK9/CycT was above 100 µM in each case.

On to `O=C1NC(=O)c2c1c1c3ccccc3[nH]c1c1[nH]c3cc(Br)ccc3c21` [Compound 2BrIC, 2-bromo-12,13-dihydro-5H-indolo[2,3-a]pyrrolo[3,4]carbazole-5,6-dione], for which, in data set [1], the IR protective characteristics entry is “exhibited IR protective characteristics”.

For the compound `CN1CCN(c2ccc(Nc3ncc4c(n3)N3CCNC(=O)C3CC4=O)nc2)CC1` (centres unmarked) [GGGG], the IC50 was above 100 µM at CDK2/CyclinA; above 100 µM on CDK2/CyclinE; 10 to 100 µM at CDK4/CyclinD1; above 100 µM at CDK5/p25; above 100 µM on CDK5/p35; 10 to 100 µM on CDK6/CyclinD3. In addition, the IC50 at CDK7/CycH/MAT1 and on CDK9/CycT was above 100 µM each time.

As to `CC(=O)c1c(C)c2cnc(Nc3ccc(N4CCNCC4)cn3)nc2n(C2CCCC2)c1=O` [PD0332991, 6-acetyl-8-cyclopentyl-5-methyl-2-(5-piperazin-1-yl-pyridin-2-ylammino)-8H-pyrido-[2,3-d]-pyrimidin-7-one], in data set [2], the “patients requiring a dose interruption” value is 71% and the “patients requiring a dose reduction” value is 35%. Besides, the IR protective characteristics entry in data set [1] was “exhibited IR protective characteristics”.

Turning to `CN1CCN(c2ccc(Nc3ncc4c(n3)N3C(CC4=O)C(=O)NCC3(C)C)nc2)CC1` (centres unmarked) [YYY], the IC50 on CDK2/CyclinA is above 100 µM; at CDK2/CyclinE, above 100 µM; on CDK4/CyclinD1, below 10 µM; on CDK5/p25, above 100 µM; on CDK5/p35, above 100 µM; on CDK6/CyclinD3, 10 to 100 µM. Further, the IC50 at CDK9/CycT was above 100 µM.

With `CN1CCN(c2ccc(Nc3ncc4c(n3)N3C(CC4)C(=O)NCC3(C)C)nc2)CC1` (centres unmarked) [ZZZ], the IC50 on CDK2/CyclinA, at CDK2/CyclinE, on CDK4/CyclinD1, at CDK5/p25, on CDK5/p35 and on CDK6/CyclinD3 was above 100 µM each time. The IC50 on CDK9/CycT was above 100 µM.

Source of the values: US20150297606A1, “Tricyclic Lactams for Use in the Protection of Hematopoietic Stem and Progenitor Cells Against Ionizing Radiation” (G1 THERAPEUTICS, INC., priority 2014, published 2015).
